Laboratory results as given in patent US20050171032A1, “Methods for the treatment of cancer” (priority 2002, published 2005).

How the values were obtained:
[1] = system: prostate glandular hyperplasia; conditions: dogs; published evidence (30); cited from earlier work
PC-3 cells = assay: EGFR and Akt1 phosphorylation by immunoblot, PC-3 cells; format: cell-based, human; conditions: 2 μg/ml filipin 1 h, 5 ng/ml EGF 20 min, FIG. 4F
Procedure: Prior to challenge with EGF (2 or 20 ng/ml), some groups of cells were treated with filipin (2 μg/ml) (lanes 7-12) for 1 h. […] In this and subsequent panels, lysates were isolated following the various treatments and processed for immunoblot analysis. p-Akt refers to a phosphorylated form of Akt1 detected with a phospho-specific Ab (Ser-473). […] LNCaP-Cav-1 cells and PC-3 cells were mock-treated or treated with 2 μg/ml filipin for 1 h at 37° C. […] Prior to the collection of cell lysates and immunoblot analysis, cells were stimulated with 5 ng/ml EGF for 20 min at 37° C.
Human PCa cell lines LNCaP and PC-3 were purchased from the American Type Culture Collection (ATCC; Rockville, Md.). Both cell lines were cultured in RPMI 1640 supplemented with 10% heat-inactivated FBS.

LNCaP cells [2] = assay: Cell viability by Trypan blue exclusion; format: cell-based, human; conditions: 1 h after filipin treatment, at the doses used; FIG. 2
Procedure: Mock- or filipin (2 μg/ml)-pretreated cells were incubated in serum-free medium with or without cholesterol/cyclodextrin (Cholesterol) complexes for 1 h at 37° C. followed by EGF treatment for 20 min. (FIG. 2A). All cells were subjected to SDEM and the I- and S-fractions analyzed by immunoblot. p-EGFR indicates EGFR phosphorylated on Y1173 detected with a phospho-specific Ab. Cell viability measured by Trypan blue exclusion 1 h after treatment of cells with filipin (FIG. 2B).

LNCaP-Cav-1 cells = assay: EGFR and Akt1 phosphorylation by immunoblot, caveolin-1 transfected LNCaP cells; format: cell-based, human; conditions: 2 μg/ml filipin 1 h, 5 ng/ml EGF 20 min, FIG. 4F
Procedure: LNCaP cells were used for all experiments shown. Prior to challenge with EGF (2 or 20 ng/ml), some groups of cells were treated with filipin (2 μg/ml) (lanes 7-12) for 1 h. Other cells (lanes 4-6, 10-12) were subsequently incubated with cyclodextrin/cholesterol complexes (Cholesterol) for 1 h to replete cholesterol (FIG. 4A). In this and subsequent panels, lysates were isolated following the various treatments and processed for immunoblot analysis. p-Akt refers to a phosphorylated form of Akt1 detected with a phospho-specific Ab (Ser-473). Cells were serum-starved overnight, then pretreated with 5 mM cyclodextrin for the indicated times (lanes 1-6), or treated for 1 h with varying concentrations of cyclodextrin (lanes 7-10), then treated immediately afterward with vehicle or with 5 ng/ml EGF (FIG. 4B). Cells were either mock-treated or treated with varying doses of filipin as indicated for 1 h followed by 5 ng/ml EGF treatment (FIG. 4C). Serum-containing medium was removed and cells were treated immediately with 2 μg/ml filipin alone under serum-free conditions for the times shown (FIG. 4D). No change in EGFR or Akt1 phosphorylation was observed when serum was removed and cells were not treated with filipin (not shown). […]

Akt1 = Akt1 phosphorylation (Ser-473) by immunoblot, LNCaP cells; format: cell-based, human; conditions: FIG. 4A
Procedure: LNCaP cells were used for all experiments shown. Prior to challenge with EGF (2 or 20 ng/ml), some groups of cells were treated with filipin (2 μg/ml) (lanes 7-12) for 1 h. Other cells (lanes 4-6, 10-12) were subsequently incubated with cyclodextrin/cholesterol complexes (Cholesterol) for 1 h to replete cholesterol (FIG. 4A). In this and subsequent panels, lysates were isolated following the various treatments and processed for immunoblot analysis. p-Akt refers to a phosphorylated form of Akt1 detected with a phospho-specific Ab ([…]). […] Cell lysates were isolated following the various treatments and processed for immunoblot analysis. p-Akt=phosphorylated form of Akt detected with a phospho-specific Ab ([…]). […] In these experiments the apoptosis of cells treated with simvastatin or mock-treated, with or without raft reconstitution, was quantified by cell death detection ELISA (Roche). Cells were either mock-treated or treated with various doses of simvastatin as indicated for 16 hours and the amount of apoptosis was quantified by ELISA and is graphically represented as absorbance at 405 nm-490 nm vs. dose of statin drug±SD from triplicate determinations (FIG. 6B). The cells were treated either in simvastatin (Sim; 10 μM) or simvastatin (Sim) and cyclodextrin/cholesterol complex (+cholesterol) for 4 hours and the amount of apoptosis was quantified by ELISA (FIG. 6C). […]

EGFR = EGFR phosphorylation by immunoblot of detergent fractions, LNCaP cells; format: cell-based, human
Procedure: Mock- or filipin (2 μg/ml)-pretreated cells were incubated in serum-free medium with or without cholesterol/cyclodextrin (Cholesterol) complexes for 1 h at 37° C. followed by EGF treatment for 20 min. […] All cells were subjected to SDEM and the I- and S-fractions analyzed by immunoblot. p-EGFR indicates EGFR phosphorylated on Y1173 detected with a phospho-specific Ab. Cell viability measured by Trypan blue exclusion 1 h after treatment of cells with filipin (FIG. 2B).
LNCaP cells were used for all experiments shown. Prior to challenge with EGF (2 or 20 ng/ml), some groups of cells were treated with filipin (2 μg/ml) (lanes 7-12) for 1 h. Other cells (lanes 4-6, 10-12) were subsequently incubated with cyclodextrin/cholesterol complexes (Cholesterol) for 1 h to replete cholesterol (FIG. 4A). In this and subsequent panels, lysates were isolated following the various treatments and processed for immunoblot analysis. p-Akt refers to a phosphorylated form of Akt1 detected with a phospho-specific Ab (Ser-473). Cells were serum-starved overnight, then pretreated with 5 mM cyclodextrin for the indicated times (lanes 1-6), or treated for 1 h with varying concentrations of cyclodextrin (lanes 7-10), then treated immediately afterward with vehicle or with 5 ng/ml EGF (FIG. 4B). […]

LNCaP cells [3] = assay: Apoptosis assays (TUNEL/flow cytometry, cell death detection ELISA, DNA ladder) in LNCaP cells; format: cell-based, human; conditions: serum-free, 20 μM LY294002 20 h, 2 μg/ml filipin 1 h, FIG. 3
Procedure: Apoptosis was quantified by TUNEL in combination with flow cytometry (FIG. 3A). LNCaP cells were seeded 24 h before treatments in 6-well plates at a density of 2-4×10^5/well. Conditions shown are: 20 h in serum-free medium (SFM); 20 μM LY294002 (LY); 20 μM LY294002 with 10 ng/ml EGF treatment (LY+E); 2 μg/ml filipin for 1 h (F); filipin treatment as (F) with 10 ng/ml EGF for 20 h (F+E); treatment with 2 μg/ml filipin and cyclodextrin/cholesterol complexes (C) for 1 h, followed by incubation with serum-free medium containing 20 μM LY294002 and 10 ng/ml EGF for 20 h (F+C+LY+E). Quantitative measurement of DNA fragmentation was performed with a cell death detection ELISA kit (FIG. 3B). […]
A quantitative sandwich ELISA was performed to measure mono- and oligonucleosomes in the cytoplasmic fraction of cell lysates according to the manufacturer's manual (Cell death detection ELISA) (Roche, Indianapolis, Ind.). Briefly, 1.5-2.0×10^5 cells/well were seeded in 6-well plates for 24 h, cell lysates were collected after various treatments as indicated, and the amount of histone-associated DNA fragments was quantified by spectrophotometric measurement of peroxidase activity retained in the immunocomplex (415 nm) against the substrate solution as a blank (490 nm). Apoptosis was also evaluated by the TUNEL method, using the In Situ Cell Death Detection Kit (Roche, Indianapolis, Ind.).

[4] = system: Human primary culture prostate epithelial cells; assay: Apoptosis by cell death detection ELISA in primary culture prostate epithelial cells; format: cell-based; conditions: various concentrations simvastatin, 16 hours; FIG. 7
Procedure: Human primary culture prostate epithelial cells were treated with various concentrations simvastatin or were mock treated as indicated at 37 °C for 16 hours. Subsequently the cells were lysed and apoptosis was quantified by cell death detection ELISA (Roche).

Compound | reduction of prostate glandular hyperplasia [1] | toxicity [1] | ligand-induced Akt1 phosphorylation (PC-3 cells) | ligand-induced EGFR phosphorylation (PC-3 cells) | cells that excluded Trypan blue (LNCaP cells [2]) [%] | ligand-induced Akt1 phosphorylation (LNCaP-Cav-1 cells) | ligand-induced EGFR phosphorylation (LNCaP-Cav-1 cells) | EGF-induced Akt1 phosphorylation (Akt1; 2 μg/ml filipin 1 h, 20 ng/ml EGF) | constitutive and EGF-induced Akt1 phosphorylation (Akt1; varying filipin doses and times, C, D) | ligand-dependent EGFR phosphorylation in the I-fraction (EGFR; filipin pretreatment 2 μg/ml, then EGF 20 min, FIG. 2) | constitutive and EGF-induced EGFR phosphorylation (EGFR; varying filipin doses and times, FIG. 4A, C, D) | apoptosis (LNCaP cells [3]) | apoptosis in normal prostatic cells [4]
CCCCC[C@@H](O)[C@H]1C(=O)O[C@H](C)[C@@H](O)/C=C/C=C/C=C/C=C/C=C(\C)[C@@H](O)C[C@H](O)C[C@H](O)C[C@H](O)C[C@H](O)C[C@H](O)C[C@@H]1O [filipin, Filipin] | up to 75% | no toxicity | suppressed | suppressed | 100 | suppressed | suppressed | substantially reduced | decreased with filipin treatment in a dose- and time-dependent fashion | suppressed | decreased with filipin treatment in a dose- and time-dependent fashion | stimulated apoptosis to a similar extent as the PI3K inhibitor | 
CCC(C)(C)C(=O)O[C@H]1C[C@@H](C)C=C2C=C[C@H](C)[C@H](CC[C@@H]3C[C@@H](O)CC(=O)O3)[C@H]21 [simvastatin] |  |  |  |  |  |  |  |  |  |  |  |  | does not cause apoptosis
